# pIC50: −log10 of the molar value.
# Target: Heat shock 70 kDa protein 1A (Homo sapiens, UniProt V9GZ37)
# Assay: small-molecule inhibition of Hsp70 – biochemical, TR-FRET (AID 786)
# Sequence of Heat shock 70 kDa protein 1A (V9GZ37 whole entry): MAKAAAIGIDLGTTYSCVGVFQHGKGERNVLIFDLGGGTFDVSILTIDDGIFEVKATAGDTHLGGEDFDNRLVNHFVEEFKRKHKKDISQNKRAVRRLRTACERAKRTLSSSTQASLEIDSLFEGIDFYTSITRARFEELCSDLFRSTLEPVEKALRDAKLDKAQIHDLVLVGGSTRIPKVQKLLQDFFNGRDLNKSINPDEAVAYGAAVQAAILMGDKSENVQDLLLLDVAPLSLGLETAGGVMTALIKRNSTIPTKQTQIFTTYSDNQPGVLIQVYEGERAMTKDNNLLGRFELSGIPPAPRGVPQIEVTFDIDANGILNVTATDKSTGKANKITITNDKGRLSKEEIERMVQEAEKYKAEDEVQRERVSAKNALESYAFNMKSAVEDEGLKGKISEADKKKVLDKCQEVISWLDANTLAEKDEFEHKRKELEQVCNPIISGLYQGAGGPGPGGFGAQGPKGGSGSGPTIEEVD
row,Compound,pIC50
1,"CC(=O)N1CCC2(CC1)c1c(n[nH]c1C)OC(=N)C2C#N (configuration not stated) [6-azanyl-1'-ethanoyl-3-methyl-spiro[2H-pyrano[2,3-c]pyrazole-4,4'-piperidine]-5-carbonitrile]",< 4.00
2,C=c1[nH]n(-c2cccc(C(=O)O)c2)c(=O)c1=CC=Cc1ccco1 [SMR000113614],4.76

# Reference: BindingDB's records for doi:10.7270/Q2RF5SF5 (Burnham Center For Chemical Genomics, 2008)
